Assays:
[1] = test system: Human BMSCs; test: Fatty acid composition of BMSC after fatty acid supplementation of media (lipid extraction, gas chromatography); format: cell-based
Method: DHA and AA were diluted in DMEM with 1% horse serum. α-tocopherol was dissolved in ethanol (absolute) before supplementation. FA and α-tocopherol were stored at 4° C. in darkness to prevent their oxidation. Following forty-eight hours, the “additional differentiation medium” was changed to “differentiation medium”, containing DMEM supplemented with SPN, 2 mM L-glutamine, 200 μM butylated hydroxyanisole (BHA), 1 mM dibutyryl cyclic AMP (dbcAMP), 0.5 mM isobutylmethylxanthine (IBMX), 1 μM retinoic acid (RA) and N2 supplement with increasing amounts of DHA (Sigma) and AA (Sigma) (0, 30, 40, 50 and 60 μM). α-tocopherol was added at a concentration of 40 μM to all samples.
Following removal of medium from the culture dish, adherent cells were washed twice with cold PBS and dried by gentle aspiration with a Pasteur pipette. To each culture dish, 3 ml of a hexane:isopropanol (3:2 vol:vol) (HIP) solvent mixture containing 5 mg/dl butylated hydroxytoluene (BHT) was added. The dishes were gently shaken at room temperature for 10 minutes and the supernates were transferred to methylation tubes. The procedure was repeated with 1.5 ml HIP and the lipid extracts were added to the same tubes. For quantitative experiments which included simultaneous protein determination, lipid extraction was performed with HIP which contained a known amount of heneicosanoic acid (21:0) so as to obtain an internal standard. In addition, for these experiments, known volumes of concentrated cell suspensions were directly extracted with HIP and the protein content was determined from an equal volume of cell concentrates.
The lipid extracts were evaporated to dryness under a stream of nitrogen. […] The tubes were capped under N2, vortexed and heated at 100° C. for 1 hour. The resulting fatty acid methyl esters (FAME) were extracted into hexane, after acidification of the mixture with 3 drops of 3N HCl, and kept under N2 at −20° C. until analysis.
Injection was performed with a split/splitless injector kept at 220° C. at a split ratio of 1:30. Detector temperature was 250° C. The column temperature gradient was as follows: 70° C. for 2 min, increased at a rate of 20° C./min to 150° C. where it remained for 5 min, increased at 3° C./min to 210° C. and a final increase at 10° C./min to 230° C. at which it was kept for 3 min until the end of the run. FAME peaks were integrated and computed with the aid of the Varian Star Integrator computer package and were identified by comparison of their retention times with that of authentic standards. Injection of the samples was performed with the aid of a CTC-AS 200 autosampler.
The amount of individual fatty acids is presented as % weight of the total identified fatty acids and as μg FA/μg protein.

[2] = test system: hBMSc; test: HPLC analysis of dopamine, DOPA and DOPAC in supernatant of differentiating hBMSc; format: cell-based, human; conditions: medium supplemented with 56 mM KCl, 10 minutes incubation
Method: hBMSc were cultured as described in Table 6 below. [table] Samples were stabilized by adding 88 μl of 85% orthophosphoric acid and 4.4 mg of metabisulfite to ml sample. Dopamine was extracted by aluminium adsorption (Alumina, Bioanalytical Systems Inc.). Separation of injected samples (50 μl) was effected by isocratic elution on a HPLC-electron chemical detection (HPLC-ECD) system with a reverse-phase C18 column (125×4.6 mm dimension, Hichrom, Inc.) in a monochloroacetate buffer mobile phase. The flow rate was set at 1.2 ml per min, and the oxidative potential of the analytical cell was set at +650 mV. Results were validated by co-elution with dopamine standards under varying buffer conditions and detector settings.

[3] = test system: mBMSc; test: Differentiation of mouse BMSc into oligodendrocyte precursors (morphology, survival, A2B5 immunoassay); format: cell-based; conditions: for effect on cell-morphology (comparison of substances) / neuronal cell morphology: 24 hr incubation; for neuronal cell morphology: inducing substance alone
Method: Mice B5/EGFP (male) were sacrificed by cervical dislocation and were prepared with 70% alcohol solution. […] The cell pellet was resuspended in 1 ml growth medium and diluted to 10 ml. The cells were plated in polystyrene plastic tissue cultures 75 cm^2 flask (Corning Incorporated, Corning, N.Y.) in the “proliferation medium” (see Example 1 hereinabove) for one week. The cells were then transferred to polylysin-coated slide-chambers (3200 cells/well), supplemented “proliferation medium” and incubated for 24 hours at 37° C. The growth medium was then replaced with “oligodendrocytes differentiation media” composed of DMEM supplemented with 2 mM glutamine, SPN, one or more of the following substances: bFGF (10 ng/ml), EGF (10-20 ng/ml), Interlukin-1b (20-40 ng/ml), dbcAMP (1-2 mM), retinoic acid (0.5 or 1 μM), neurotrophin-3 (50 or 100 ng/ml), human platelet derived growth factor (PDGF-AA; 5-20 ng/ml), N2 supplement, triiodothyronien (T3; 40 ng/ml) and ciliary neurotrophic factor (20 ng/ml; CNTF).
The cultures were incubated at 37° C. for 1, 2 or 6 days (replacing growth media with fresh media every two days) then fixed in 4% PFA. Cells were blocked in 10% FCS solution then incubated with 5 ug/ml anti-A2B5 monoclonal antibody (1:200; R&D systems; 1:200) overnight at 4° C. Cells were then washed twice in PBS for 10 min and incubated with goat-anti-mouse Cy-3 second antibody (Jackson laboratories; 1:500) at room temperature for 20 min. The incidence of cells stained positive for A2B5 (an early marker of oligodendrocyte progenitors) was determined by using a fluorescent microscope equipped with Image ProPlus cell-counting program (Cybernetics).

[4] = +DHA (30 μM), Additional differentiation medium

## CCCCC/C=C\C/C=C\C/C=C\C/C=C\CCCC(=O)O [AA, arachidonic acid]
[1]
  optimal concentration in the additional differentiation medium to obtain the best cellular FA profile: 40 µM

## CC/C=C\C/C=C\C/C=C\C/C=C\C/C=C\C/C=C\CCC(=O)O [DHA, docosahexaenoic acid]
[1]
  optimal concentration in the additional differentiation medium to obtain the best cellular FA profile: 40 µM
[1]; [4]
  20:4 n-6 of BMSC: 8.15 % weight
  22:6 n-3 of BMSC: 16.70 % weight
  Sum MUFA of BMSC: 24.24 % weight
  Sum PUFA of BMSC: 33.08 % weight
  Sum Saturated fatty acids of BMSC: 42.69 % weight
[1]; +DHA, Differentiation medium
  20:4 n-6 of BMSC: 5.40 % weight
  22:6 n-3 of BMSC: 13.01 % weight
  Sum MUFA of BMSC: 12.32 % weight
  Sum PUFA of BMSC: 25.71 % weight
  Sum Saturated fatty acids of BMSC: 61.79 % weight

## [Cl-].[K+] [KCl]
[2]
  effect on dopamine secretion: further enhanced dopamine secretion

## CCCC(=O)Nc1ncnc2c1ncn2[C@@H]1O[C@@H]2COP(=O)(O)O[C@H]2[C@H]1OC(=O)CCC [dbcAMP, dibutyryl cyclic AMP]
[3]
  effect on cell-morphology (comparison of substances): most pronounced effect on cell-morphology
  neuronal cell morphology: Neuronal cell morphology was observed

## N[C@@H](Cc1cc(I)c(Oc2ccc(O)c(I)c2)c(I)c1)C(=O)O [thyroid factor 3, triiodothyronien]
[3]
  effect on cell-morphology (comparison of substances): most pronounced effect on cell-morphology

## Cc1c(C)c2c(c(C)c1O)CC[C@@](C)(CCC[C@H](C)CCC[C@H](C)CCCC(C)C)O2 [α-Tocopherol, α-tocopherol]
[1]; 40 μM
  effect on PUFA composition of the neuron-like cells: did not affect the PUFA composition

## IL-6: IL-6, named only in the result sentence (data not shown)
[3]
  effect on cell-morphology (comparison of substances): most pronounced effect on cell-morphology

## Interlukin-1b [IL-1b]
[3]
  neuronal cell morphology: Neuronal cell morphology was observed

B1: neurotrophin-3 (protein, UniProt P20783 139-257, looked up)
Neurotrophin-3: YAEHKSHRGEYSVCDSESLWVTDKSSAIDIRGHQVTVLGEIKTGNSPVKQYFYETRCKEARPVKNGCRGIDDKHWNSQCKTSQTYVRALTSENNKLVGWRWIRIDTSCVCALSRKIGRT
notes: neurotrophin-3, inducing substance in oligodendrocytes differentiation media
[3]
  incidence of antibody-labeled A2B5 (comparison of substances): highest incidence
  effect on cell-morphology (comparison of substances): most pronounced effect on cell-morphology
  neuronal cell morphology: Neuronal cell morphology was observed
